Data published in the CheMixHub viscosity set.
± gives the uncertainty stated by the source.

Test: xn = mol fraction of the nth substance listed

In the case of `CC(C)[N+](=O)[O-]` + Cc1ccc(C)cc1, the viscosity (293.15 K, 101.33 kPa, x1 = 0.1052) is reported as 0.64 ± 0.006 mPa·s, the viscosity (293.15 K, 101.33 kPa, x1 = 0.2079) is reported as 0.636 ± 0.006 mPa·s and the viscosity (293.15 K, 101.33 kPa, x1 = 0.2945) is reported as 0.638 ± 0.006 mPa·s. The viscosity (293.15 K, 101.33 kPa, x1 = 0.3973) was 0.644 ± 0.007 mPa·s, the viscosity (293.15 K, 101.33 kPa, x1 = 0.4976) was 0.651 ± 0.007 mPa·s and the viscosity (293.15 K, 101.33 kPa, x1 = 0.6039) was 0.664 ± 0.007 mPa·s. For the same compound, the viscosity (293.15 K, 101.33 kPa, x1 = 0.7089) was 0.678 ± 0.007 mPa·s, the viscosity (293.15 K, 101.33 kPa, x1 = 0.8008) was 0.699 ± 0.007 mPa·s and the viscosity (293.15 K, 101.33 kPa, x1 = 0.8925) was 0.727 ± 0.007 mPa·s.

In the case of `BrCCBr` + Cc1cccc(C)c1, the viscosity (298.15 K, 101.33 kPa, x1 = 0.1391) is reported as 0.6538 ± 0.0082 mPa·s, the viscosity (298.15 K, 101.33 kPa, x1 = 0.269) is reported as 0.7069 ± 0.0087 mPa·s and the viscosity (298.15 K, 101.33 kPa, x1 = 0.3835) is reported as 0.8095 ± 0.0099 mPa·s. The viscosity (298.15 K, 101.33 kPa, x1 = 0.4852) was 0.8843 ± 0.011 mPa·s, the viscosity (298.15 K, 101.33 kPa, x1 = 0.5776) was 1.002 ± 0.012 mPa·s and the viscosity (298.15 K, 101.33 kPa, x1 = 0.6789) was 1.064 ± 0.013 mPa·s. It also gave a viscosity (298.15 K, 101.33 kPa, x1 = 0.7684) of 1.191 ± 0.014 mPa·s, a viscosity (298.15 K, 101.33 kPa, x1 = 0.8458) of 1.307 ± 0.015 mPa·s and a viscosity (298.15 K, 101.33 kPa, x1 = 0.9257) of 1.447 ± 0.017 mPa·s. The viscosity (308.15 K, 101.33 kPa, x1 = 0.1463) was 0.587 ± 0.0074 mPa·s, the viscosity (308.15 K, 101.33 kPa, x1 = 0.2621) was 0.6362 ± 0.0079 mPa·s and the viscosity (308.15 K, 101.33 kPa, x1 = 0.3771) was 0.7044 ± 0.0086 mPa·s. It also gave a viscosity (308.15 K, 101.33 kPa, x1 = 0.4834) of 0.764 ± 0.0093 mPa·s, a viscosity (308.15 K, 101.33 kPa, x1 = 0.5853) of 0.8526 ± 0.01 mPa·s and a viscosity (308.15 K, 101.33 kPa, x1 = 0.6796) of 0.9345 ± 0.011 mPa·s. The viscosity (308.15 K, 101.33 kPa, x1 = 0.7697) was 1.018 ± 0.012 mPa·s, the viscosity (308.15 K, 101.33 kPa, x1 = 0.8516) was 1.143 ± 0.013 mPa·s and the viscosity (308.15 K, 101.33 kPa, x1 = 0.9254) was 1.259 ± 0.015 mPa·s.

In the case of `Brc1ccccc1` + Cc1cccc(C)c1, the viscosity (293.15 K, 101 kPa, x1 = 0.112) is reported as 0.626 ± 0.011 mPa·s, the viscosity (293.15 K, 101 kPa, x1 = 0.2214) is reported as 0.677 ± 0.012 mPa·s and the viscosity (293.15 K, 101 kPa, x1 = 0.3339) is reported as 0.723 ± 0.013 mPa·s. For the same compound, the viscosity (293.15 K, 101 kPa, x1 = 0.5406) was 0.818 ± 0.014 mPa·s, the viscosity (293.15 K, 101 kPa, x1 = 0.6754) was 0.89 ± 0.015 mPa·s and the viscosity (293.15 K, 101 kPa, x1 = 0.7672) was 0.936 ± 0.016 mPa·s. The viscosity (293.15 K, 101 kPa, x1 = 0.848) was 0.978 ± 0.017 mPa·s, the viscosity (293.15 K, 101 kPa, x1 = 0.9095) was 1.01 ± 0.017 mPa·s and the viscosity (298.15 K, 101 kPa, x1 = 0.11) was 0.592 ± 0.011 mPa·s. For the same compound, the viscosity (298.15 K, 101 kPa, x1 = 0.2179) was 0.635 ± 0.011 mPa·s, the viscosity (298.15 K, 101 kPa, x1 = 0.3324) was 0.685 ± 0.012 mPa·s and the viscosity (298.15 K, 101 kPa, x1 = 0.4083) was 0.715 ± 0.013 mPa·s. For the same compound, the viscosity (298.15 K, 101 kPa, x1 = 0.5319) was 0.768 ± 0.013 mPa·s, the viscosity (298.15 K, 101 kPa, x1 = 0.6412) was 0.819 ± 0.014 mPa·s and the viscosity (298.15 K, 101 kPa, x1 = 0.7163) was 0.853 ± 0.015 mPa·s. It also gave a viscosity (298.15 K, 101 kPa, x1 = 0.866) of 0.927 ± 0.016 mPa·s, a viscosity (303.15 K, 101 kPa, x1 = 0.1106) of 0.555 ± 0.01 mPa·s and a viscosity (303.15 K, 101 kPa, x1 = 0.2212) of 0.592 ± 0.011 mPa·s. It also gave a viscosity (303.15 K, 101 kPa, x1 = 0.3352) of 0.639 ± 0.012 mPa·s, a viscosity (303.15 K, 101 kPa, x1 = 0.414) of 0.67 ± 0.012 mPa·s and a viscosity (303.15 K, 101 kPa, x1 = 0.5251) of 0.712 ± 0.013 mPa·s. The viscosity (303.15 K, 101 kPa, x1 = 0.6553) was 0.767 ± 0.013 mPa·s, the viscosity (303.15 K, 101 kPa, x1 = 0.765) was 0.815 ± 0.014 mPa·s and the viscosity (303.15 K, 101 kPa, x1 = 0.8807) was 0.866 ± 0.015 mPa·s.
